Consider three molecules from patent publication US10723766B2, “Derivatives of gamma-amanitin” (Heidelberg Pharma Research GmbH, priority 2015, dated 2020).

The subject of one assay is SKOV3 cells. Briefly: viability of SKOV3 cells treated with amatoxins (FIG. 3). It counts as cell-based.
For assay [1] the following is noted: Zanotti et al., 1989; cited from earlier work.
A further assay deals with RNA-polymerase II (Homo sapiens, UniProt P24928). To be noted: not covalently bound, very tight complex; read-out: KD of complex between amanitin and RNA-polymerase II; cited from earlier work.

Usually EC50 stands for the concentration at which the effect is half-maximal. In the assay with SKOV3 cells, `CC[C@H](C)[C@@H]1NC(=O)CNC(=O)C2Cc3c([nH]c4cc(O)ccc34)[S@+]([O-])CC(NC(=O)CNC1=O)C(=O)N[C@@H](CC(N)=O)C(=O)N1CC(O)C[C@H]1C(=O)N[C@@H]([C@@H](C)[C@H](C)O)C(=O)N2` (stereo partly drawn) [γ-amanitin (4), γ-amanitin] showed an EC50 of 270 nM. As to “S-deoxo-γ(R)-hydroxy-isoleucin-amaninamide”, the biological activity result in assay [1] is “biologically inactive”.

A word on the Kd: it is the constant that tells how readily two partners part at equilibrium. For amanitin, the Kd on RNA-polymerase II is 3 nM.
